Measurements published in PMC9841533, “Microtubule-Stabilizing 1,2,4-Triazolo[1,5-a]pyrimidines as Candidate Therapeutics for Neurodegenerative Disease: Matched Molecular Pair Analyses and Computational Studies Reveal New Structure–Activity Insights” (Journal of Medicinal Chemistry, 2022).
Counter-ions that a name gives are not always drawn. Like-named read-outs stand apart in the source and are kept apart here.

Tests used:
[1] = tested on: total α-tubulin (α-Tub) levels in QBI293 cells; test: QBI293 cell assay: total α-tubulin ELISA; format: cell-based
Experimental: (§1) All test compounds were initially screened in the same cell-based (QBI293) assay of MT stabilization used in our previous SAR studies[11],[12] so as to allow direct comparison with literature data. Changes in levels of acetylated α-tubulin (AcTub) and total α-tubulin (α-Tub), relative to vehicle-treated negative control cells, were determined after 4 h of incubation with test compounds at 1 and 10 μM. To account for possible day-to-day differences in the responsiveness of cells to MT-stabilizing treatment, compound-dependent changes in AcTub levels relative to DMSO-treated cells were also normalized to the corresponding changes caused by 100 nM of 5 that was used as a positive control. In addition, docking studies, binding free energy calculations, and in selected cases, molecular dynamic simulations were conducted using an X-ray structure of the vinca and seventh sites (PDB: 5NJH,[10]7CLD[13]). […] For selected compounds, additional studies included testing in the QBI293 cell AcTub assay at additional compound concentrations, and/or evaluation of test compounds for their ability to prevent MT collapse in primary neuron cultures treated with the phosphatase inhibitor, okadaic […] (OA). Finally, cytotoxicity studies in QBI293 and HeLa cells were also conducted for representative examples (Supporting Information).
(§2) Compound-induced changes in acetylated-tubulin and α-tubulin in QBI293 cells or primary mouse or rat neurons were as previously described.[11],[12] […] The plated cells were incubated overnight, after which the medium was aspirated and fresh medium containing vehicle (0.25–0.3% DMSO) or test compound was added. Test compounds were prepared as 4–20 mM stock solutions in 100% DMSO, and these were diluted in culture medium prior to addition to the QBI293 cells. After 4 h incubation, whole-cell extracts were prepared from the QBI293 cells as described[11] and the supernatant fraction from each sample was assessed for protein content by bicinchoninic acid (BCA) assay. The amount of acetyl-tubulin (AcTub) and α-tubulin (αTub) within the cell extract samples was quantified using specific enzyme-linked immunosorbent assays (ELISA), as previously described.[11] Acetyl-tubulin levels were determined in a similar manner in rat or mouse cortical neuron cultures in which embryonic dissociated cortical neurons were plated at 3 × 10^5 cells/well in poly-D-lysine-coated 12-well plates, essentially as previously described.[11] […] Culture homogenates were prepared for the determination of AcTub levels by ELISA as previously described.[11]

[2] = tested on: acetylated α-tubulin (AcTub) levels in QBI293 cells; test: QBI293 cell assay of MT stabilization: acetylated α-tubulin ELISA; format: cell-based
Experimental: as §1, §2

[3] = 4 h, 1 uM compound, read-out: AlfaTub (1uM)
[4] = 4 h, 10 uM compound, read-out: AlfaTub (10 uM)
[5] = 4 h incubation, 1 μM, read-out: α-Tub 1 μM, fold-change compared to vehicle (DMSO)-treated cells
[6] = 4 h incubation, 10 μM, read-out: α-Tub 10 μM, fold-change compared to vehicle (DMSO)-treated cells
[7] = 4 h, 1 uM compound, read-out: AcTub (1uM)
[8] = 4 h, 10 uM compound, read-out: AcTub (10 uM)
[9] = 4 h incubation, 1 μM, read-out: AcTub 1 μM, fold-change compared to vehicle (DMSO)-treated cells
[10] = 4 h incubation, 10 μM, read-out: AcTub 10 μM, fold-change compared to vehicle (DMSO)-treated cells

**Q.** For C[C@@H](Nc1c(-c2c(F)cc(F)cc2F)c(Cl)nc2ncnn12)C1CC1 [Compound 17, (R)-5-Chloro-N-(1-cyclopropylethyl)-6-(2,4,6-trifluorophenyl)-[1,2,4]triazolo[1,5-a]pyrimidin-7-amine], which fold induction at 1 µM [1, 3] is on record?
**A.** The fold induction at 1 µM was 1.06.

**Q.** And the fold induction at 10 µM [1, 4]?
**A.** The fold induction at 10 µM was 1.16.

**Q.** What about the fold induction at 1 µM [1, 5] of the same molecule?
**A.** The fold induction at 1 µM was 1.06 ± 0.07.

**Q.** And the fold induction at 10 µM [1, 6]?
**A.** The fold induction at 10 µM was 1.16 ± 0.02.

**Q.** What about the “AcTub (1 uM - normalized)” value ([2]; 1 uM compound) of the same molecule?
**A.** Its value is 0.19.

**Q.** And the “AcTub (10 uM - normalized)” value ([2]; 10 uM compound)?
**A.** The value was 0.4.

**Q.** What about the fold induction at 1 µM [2, 7] of the same molecule?
**A.** Its fold induction at 1 µM is 1.95.

**Q.** What about the fold induction at 10 µM [2, 8] of the same molecule?
**A.** Its fold induction at 10 µM is 3.99.

**Q.** What about the “AcTub 1 μM, fold-change compared to positive control compound 5 (100 nM) (in parentheses)” value (shortened to “AcTub 1 μM, fold-change”) ([2]; 4 h incubation, 1 μM) of the same molecule?
**A.** The value was 0.19 fold-change.

**Q.** What about the fold induction at 1 µM [2, 9] of the same molecule?
**A.** Its fold induction at 1 µM is 1.95 ± 0.18.

**Q.** What about the “AcTub 10 μM, fold-change compared to positive control compound 5 (100 nM) (in parentheses)” value (shortened to “AcTub 10 μM, fold-change”) ([2]; 4 h incubation, 10 μM) of the same molecule?
**A.** The value was 0.40 fold-change.

**Q.** And the fold induction at 10 µM [2, 10]?
**A.** Its fold induction at 10 µM is 3.99 ± 0.1.

**Q.** For Fc1cc(F)c(-c2c(Cl)nc3ncnn3c2NCC2CCC2)c(F)c1 [Compound 15, 5-Chloro-N-(cyclobutylmethyl)-6-(2,4,6-trifluorophenyl)-[1,2,4]triazolo[1,5-a]pyrimidin-7-amine], which fold induction at 1 µM [1, 3] is on record?
**A.** The fold induction at 1 µM was 1.07.

**Q.** What about the fold induction at 10 µM [1, 4] of the same molecule?
**A.** The fold induction at 10 µM was 0.96.

**Q.** What about the fold induction at 1 µM [1, 5] of the same molecule?
**A.** The fold induction at 1 µM was 1.07 ± 0.01.

**Q.** And the fold induction at 10 µM [1, 6]?
**A.** The fold induction at 10 µM was 0.96 ± 0.03.

**Q.** What about the “AcTub (1 uM - normalized)” value ([2]; 1 uM compound) of the same molecule?
**A.** Its value is 0.22.

**Q.** What about the “AcTub (10 uM - normalized)” value ([2]; 10 uM compound) of the same molecule?
**A.** The value was 0.44.

**Q.** And the fold induction at 1 µM [2, 7]?
**A.** Its fold induction at 1 µM is 1.55.

**Q.** What about the fold induction at 10 µM [2, 8] of the same molecule?
**A.** The fold induction at 10 µM was 3.08.

**Q.** And the “AcTub 1 μM, fold-change” value ([2]; 4 h incubation, 1 μM)?
**A.** The value was 0.22 fold-change.

**Q.** What about the fold induction at 1 µM [2, 9] of the same molecule?
**A.** Its fold induction at 1 µM is 1.55 ± 0.03.

**Q.** And the “AcTub 10 μM, fold-change” value ([2]; 4 h incubation, 10 μM)?
**A.** Its value is 0.44 fold-change.

**Q.** What about the fold induction at 10 µM [2, 10] of the same molecule?
**A.** The fold induction at 10 µM was 3.08 ± 0.03.

**Q.** For C[C@H](Nc1c(-c2c(F)cc(C#CCCO)cc2F)c(Cl)nc2ncnn12)C(F)(F)F [Compound 42, (S)-4-(4-(5-Chloro-7-((1,1,1-trifluoropropan-2-yl)amino)-[1,2,4]triazolo[1,5-a]pyrimidin-6-yl)-3,5-difluorophenyl)but-3-yn-1-ol], which fold induction at 1 µM [1, 3] is on record?
**A.** Its fold induction at 1 µM is 0.88.

**Q.** And the fold induction at 10 µM [1, 4]?
**A.** The fold induction at 10 µM was 0.69.

**Q.** And the fold induction at 1 µM [1, 5]?
**A.** The fold induction at 1 µM was 0.88 ± 0.01.

**Q.** What about the fold induction at 10 µM [1, 6] of the same molecule?
**A.** Its fold induction at 10 µM is 0.69 ± 0.02.

**Q.** What about the “AcTub (1 uM - normalized)” value ([2]; 1 uM compound) of the same molecule?
**A.** The value was 0.23.

**Q.** And the “AcTub (10 uM - normalized)” value ([2]; 10 uM compound)?
**A.** The value was 0.92.

**Q.** What about the fold induction at 1 µM [2, 7] of the same molecule?
**A.** The fold induction at 1 µM was 1.62.

**Q.** What about the fold induction at 10 µM [2, 8] of the same molecule?
**A.** Its fold induction at 10 µM is 6.4.

**Q.** What about the “AcTub 1 μM, fold-change” value ([2]; 4 h incubation, 1 μM) of the same molecule?
**A.** Its value is 0.23 fold-change.

**Q.** What about the fold induction at 1 µM [2, 9] of the same molecule?
**A.** The fold induction at 1 µM was 1.62 ± 0.05.

**Q.** And the “AcTub 10 μM, fold-change” value ([2]; 4 h incubation, 10 μM)?
**A.** The value was 0.92 fold-change.

**Q.** And the fold induction at 10 µM [2, 10]?
**A.** The fold induction at 10 µM was 6.4 ± 0.32.

**Q.** How did the fold induction at 1 µM [1, 3] turn out when CNCC#Cc1cc(F)c(-c2c(Cl)nc3ncnn3c2N[C@H](C)C(C)C)c(F)c1 [Compound 51, (R)-5-Chloro-6-(2,6-difluoro-4-(3-(methylamino)prop-1-yn-1-yl)phenyl)-N-(3-methylbutan-2-yl)-[1,2,4]triazolo[1,5-a]pyrimidin-7-amine Hydrochloride] was run?
**A.** Its fold induction at 1 µM is 0.96.

**Q.** And the fold induction at 10 µM [1, 4]?
**A.** The fold induction at 10 µM was 0.96.

**Q.** And the fold induction at 1 µM [1, 5]?
**A.** The fold induction at 1 µM was 0.96 ± 0.01.

**Q.** And the fold induction at 10 µM [1, 6]?
**A.** Its fold induction at 10 µM is 0.96 ± 0.03.

**Q.** What about the “AcTub (1 uM - normalized)” value ([2]; 1 uM compound) of the same molecule?
**A.** Its value is 0.27.

**Q.** And the “AcTub (10 uM - normalized)” value ([2]; 10 uM compound)?
**A.** Its value is 0.79.

**Q.** What about the fold induction at 1 µM [2, 7] of the same molecule?
**A.** Its fold induction at 1 µM is 1.98.

**Q.** What about the fold induction at 10 µM [2, 8] of the same molecule?
**A.** The fold induction at 10 µM was 5.92.

**Q.** And the “AcTub 1 μM, fold-change” value ([2]; 4 h incubation, 1 μM)?
**A.** Its value is 0.27 fold-change.

**Q.** What about the fold induction at 1 µM [2, 9] of the same molecule?
**A.** Its fold induction at 1 µM is 1.98 ± 0.09.

**Q.** What about the “AcTub 10 μM, fold-change” value ([2]; 4 h incubation, 10 μM) of the same molecule?
**A.** The value was 0.79 fold-change.

**Q.** What about the fold induction at 10 µM [2, 10] of the same molecule?
**A.** Its fold induction at 10 µM is 5.92 ± 0.14.

**Q.** With CC(C)[C@@H](C)Nc1c(-c2c(F)cc(C#CCCN(C)C)cc2F)c(Cl)nc2ncnn12 [Compound 52, (R)-5-Chloro-6-(4-(4-(dimethylamino)but-1-yn-1-yl)-2,6-difluorophenyl)-N-(3-methylbutan-2-yl)-[1,2,4]triazolo[1,5-a]pyrimidin-7-amine 2,2,2-Trifluoroacetate] as the molecule, how does the fold induction at 1 µM [1, 3] read?
**A.** Its fold induction at 1 µM is 1.

**Q.** What about the fold induction at 10 µM [1, 4] of the same molecule?
**A.** Its fold induction at 10 µM is 1.15.

**Q.** What about the fold induction at 1 µM [1, 5] of the same molecule?
**A.** Its fold induction at 1 µM is 1 ± 0.02.

**Q.** What about the fold induction at 10 µM [1, 6] of the same molecule?
**A.** Its fold induction at 10 µM is 1.15 ± 0.02.

**Q.** What about the “AcTub (1 uM - normalized)” value ([2]; 1 uM compound) of the same molecule?
**A.** The value was 1.75.

**Q.** And the “AcTub (10 uM - normalized)” value ([2]; 10 uM compound)?
**A.** Its value is 1.24.

**Q.** What about the fold induction at 1 µM [2, 7] of the same molecule?
**A.** The fold induction at 1 µM was 9.5.

**Q.** What about the fold induction at 10 µM [2, 8] of the same molecule?
**A.** Its fold induction at 10 µM is 6.7.

**Q.** And the “AcTub 1 μM, fold-change” value ([2]; 4 h incubation, 1 μM)?
**A.** The value was 1.75 fold-change.

**Q.** And the fold induction at 1 µM [2, 9]?
**A.** Its fold induction at 1 µM is 9.5 ± 0.22.

**Q.** What about the “AcTub 10 μM, fold-change” value ([2]; 4 h incubation, 10 μM) of the same molecule?
**A.** Its value is 1.24 fold-change.

**Q.** And the fold induction at 10 µM [2, 10]?
**A.** Its fold induction at 10 µM is 6.7 ± 0.5.
